In this experiment the test system is P. falciparum 3D7 growth, pLDH absorbance. Description: blood-stage malaria parasite growth potency – strain 3D7, dose response (AID 2305).
`CC(=O)N(Cc1nc(-c2cc(Cl)c(Cl)s2)cs1)c1c(C)cccc1C` showed an IC50 of 0.33 µM.
As for `COc1ccc(-c2cc(C(=O)N[C@@H](CC3CCCCC3)C(=O)NCCN3CCCCC3)ccc2O)cc1`, the IC50 was found to be 0.95 µM. Against the preceding compound, the IC50 is about 2.9-fold higher.
Take `COc1ccc2nc(C)cc(NN=Cc3ccc([N+](=O)[O-])cc3)c2c1`: the concentration for half-maximal inhibition (IC50) was 0.69 µM. The IC50 values of the last two compounds are within 1.5-fold of each other.
With `CCCN(Cc1ccc(C)cc1)Cc1cc(=O)c2cc(Cl)ccc2[nH]1` the figure was 1.05 µM; with `COc1ccc(-c2cc(C(F)(F)F)n3ncc(C(=O)Nc4cc(C)ccc4O)c3n2)cc1OC`, 0.13 µM; with `Nc1c2ccccc2nc2ccc(Cl)cc12`, 0.81 µM.
Compound `COc1ccc(-c2ccc(CNC(=O)c3ccc(Cl)cc3)c(F)c2)cc1CN1CCCN(C)CC1` gave an IC50 of 0.71 µM. The IC50 values of the last two compounds are within 1.5-fold of each other.
In the case of `CCOc1cc(C(=O)NC2CC(C)(C)N(C)C(C)(C)C2)ccc1-c1nc2cc(Cl)c(Cl)cc2[nH]1`, the 50% inhibitory concentration (IC50) amounted to 0.86 µM. The IC50 values of the last two compounds are within 1.5-fold of each other.
The compound `CC[C@H]1CN2CC[C@H]1C[C@H]2[C@H](O)c1ccnc2ccc(C#N)cc12` came in with a half-maximal inhibitory concentration (IC50) of 0.15 µM.
`CC(C)NCc1ccc(-c2ccc(CN3CCCC(c4ccccc4)C3)cc2)c(C(=O)NCC2CCCCC2)c1` (stereo not drawn) showed a concentration for half-maximal inhibition (IC50) of 0.72 µM.
As to `COc1cc(CCN=C(N)/C=C/c2ccc(Cl)cc2)ccc1Cl`, the IC50 is 0.24 µM.
Turning to `CCCCCCC(C)c1cc(OCCN(CC)CC)c2c(c1)OC(C)(C)C=C2c1ccncc1` (stereo not drawn), the IC50 was 1.26 µM. Against the preceding compound, the IC50 is about 5.2-fold higher.
The compound `Cc1nc(-c2nc(N3CCC(O)CC3)ncc2-c2ccsc2)sc1C` showed an IC50 of 0.94 µM.
For the compound `c1ccc2sc(Sc3ncnc4sccc34)nc2c1`, the half-maximal inhibitory concentration (IC50) turned out to be 0.73 µM.
The result for `CCC1(c2ccccc2)N=C(N)N(CCCc2ccccc2)C1=O` (stereo not drawn) reads 0.89 µM.
With `O=S(=O)(NCCN1CCCC1)c1ccc(-c2ccc(CN3Cc4ccccc4C3)cc2)s1` the figure was 0.93 µM.
Compound `CC(C)C1CCc2nc(N)nc(N)c2C1` (stereo not drawn) registered an IC50 of 0.14 µM.
In turn, `CN1CCC(C(=O)N(Cc2ccc(-c3ccc(CNCCc4ccc(S(C)(=O)=O)cc4)cn3)cc2)Cc2cccc(F)c2)CC1` came in with a half-maximal inhibitory concentration (IC50) of 0.71 µM. Against the preceding compound, the IC50 is about 5.1-fold higher.
Take `Oc1cccc(-c2nc3ccc(C4=N[C@H]5CCCC[C@H]5N4)cc3[nH]2)c1`: the IC50 came to 0.59 µM. The IC50 values of the last two compounds are within 1.5-fold of each other.
With `COc1cccc(Nc2nc(C)cc(NC3CCN(Cc4ccccc4)CC3)n2)c1` the figure was 0.69 µM.
Compound `Nc1cc(-c2ccc(Br)cc2O)nc2ccccc12` gave a half-maximal inhibitory concentration (IC50) of 0.62 µM.
In turn, `CCCC/C=C(\Cl)c1ccc(O)c2c1C[C@H]1C[C@H]3[C@H](N(C)C)C(=O)C(C(N)=O)=C(O)[C@@]3(O)C(=O)C1=C2O` registered an IC50 of 1.09 µM.
As for `O=C(Nc1cccnc1)c1ccc(-c2cc3ccncc3cc2OC2CCNCC2)s1`, the IC50 amounted to 0.88 µM.
`CCOc1ccc(-c2nonc2NC(=O)c2ccccc2F)cc1OCC`: the half-maximal inhibitory concentration (IC50) was 0.84 µM.
On to `Cc1cccc(C(=O)Nc2ccnc(N(C)CCCN(C)Cc3cccc(O)c3)c2)c1`, for which the IC50 was 0.97 µM.
On to `O=C(Nc1cc(Cl)cc(Cl)c1)c1cc(Cl)c(=O)n(Cc2cccc(Cl)c2)c1`, for which the IC50 was 0.75 µM. This IC50 and that of the compound before are within 1.5-fold of each other.
With `CCc1ccc(NC(=O)c2ccc(CN3CCCN(CCC(C)C)CC3)cc2)cc1` the figure was 0.63 µM; with `O=C(Cn1c(CCc2cccc(F)c2F)cc(=O)c2ccccc21)N(Cc1ccc(-c2ccc(C(F)(F)F)cc2)cc1)C1CCN(CCO)CC1`, 1.32 µM.
`O=C(NCCCNc1ccnc2cc(Cl)ccc12)c1ccccc1F` displayed a concentration for half-maximal inhibition (IC50) of 0.32 µM.
On to `Cc1ccc(Nc2nccc(N(C)c3ccc4c(c3)nc(NC(=O)Cc3ccc(Cl)c(Cl)c3)n4C)n2)cc1S(N)(=O)=O`, for which the concentration for half-maximal inhibition (IC50) was 1.11 µM.
For the compound `NC(=NCc1ccccc1)Nc1cccc(Cc2ccccc2)n1`, the 50% inhibitory concentration (IC50) stood at 0.86 µM.
For the compound `CC(=O)Nc1ccc(C(=O)Nc2cccc(-c3csc(-c4nc5ccccc5[nH]4)c3)c2)cn1`, the half-maximal inhibitory concentration (IC50) came out at 0.12 µM. Against the preceding compound, the IC50 is about 7.2-fold lower.
`CC(C)Cn1c(Sc2ccc(C#N)c([N+](=O)[O-])c2)nnc1-c1ccc(N(C)C)cc1` had a half-inhibitory concentration (IC50) of 0.22 µM.
In turn, `CC(=O)Nc1cc(C(=O)Nc2cccc(-c3csc(-c4nc5ccccc5[nH]4)c3)c2)ccc1C` returned a half-inhibitory concentration (IC50) of 0.46 µM.
With `CCCCCC(C)C(C)c1cc(OC(N)=O)c2c(c1)OC(C)(C)C=C2c1ccncc1` (stereo not drawn) the figure was 0.9 µM; with `Cc1c(-c2ccccc2)ccc2[nH]cc(CC#N)c12`, 0.7 µM; with `COc1cccc(O)c1CNCC(O)c1cccc(C(F)(F)F)c1` (stereo not drawn), 0.95 µM.
The result for `CC[C@H]1CN2CC[C@H]1C[C@H]2[C@H](OC(=O)c1ccccc1)c1cc(C#N)nc2ccc(OC)cc12` reads 0.91 µM; that for `Cc1cccc2[nH]c(-c3ccc(-c4cccc(CNCCc5ccncc5)c4)s3)nc12`, 0.14 µM; that for `CCOC(=O)c1c(C)n(C2CCCCCC2)c2cc(Br)c(O)cc12`, 1.2 µM.
`COCCn1c(-c2cccc(Cl)c2)nn(-c2ccc([N+](=O)[O-])cc2Cl)c1=S` yielded an IC50 of 0.74 µM.
In turn, `CCC(=O)Oc1ccc(NC(=O)c2cccc(OC)c2)cc1` registered a concentration for half-maximal inhibition (IC50) of 0.77 µM.
With `CCOC(=O)C1=C(C)NC(C)=C(C(=O)OCC)C1(C(=O)OCc1ccccc1)c1cccc(C(F)(F)F)c1` the figure was 1.23 µM.
